# Patent US20070281947A1, “Diarylmethylpiperazines As Prophylactic Or Therapeutic Agents For Viral Myocarditis” (priority 2002, published 2007)
# Marks after values point to notes of the source that are not given here.
# Legend:
# Type in all cases: in vivo
# EMC virus [1] = assay: Effect on histopathological changes in heart muscle in a cardiac insufficiency model induced by EMC viral myocarditis in mice; details: for Heart weight (g) (day 5) / Heart weight/body weight ratio (day 5): DBA/2 mice; for Heart weight (g) (day 5): EMC virus 1 pfu/mouse i.p.; for Heart weight/body weight ratio (day 5): EMC virus
# Description: A comparative study was conducted on the effect of cetirizine on histopathological changes in heart muscle in a cardiac insufficiency model induced by EMC viral myocarditis in mice.
# 28-day-old, male DBA/2 mice were divided into three groups, and EMC virus was inoculated intraperitoneally to all groups at 1 pfu/mouse (day 0) in the same manner as Test Example 1.
# (§1) Following inoculation, similar to Example 1, a control group given only distilled water to serve as a control (n=7), a cetirizine low dose group to which cetirizine was administered at a dose of 1 mg/kg/day (n=10), and a cetirizine high dose group to which cetirizine was administered at 10 mg/kg/day (n=7), were forcibly fed once a day using a cannula in the same manner as Test Example 1 for 5 consecutive days.
# After five days, the hearts of the animals were removed, stained with hematoxylin-eosin stain after fixing with formalin, and scored for the two parameters of heart muscle cellular necrosis and inflammatory cellular invasion in the manner described below (documents such as Circulation 1999; 100; 1823-1829 can be referred to for further details regarding this formalin fixation, hematoxylin-eosin staining and scoring). The scores for heart muscle cellular necrosis and inflammatory cellular invasion were evaluated independently by two observers and then averaged. Statistical analysis was performed using the one way analysis of variance (ANOVA) and Fisher's protected least significant difference test (documents such as StatVien, SAS Institute Inc., Cary, N.C., U.S.A., 1998 can be referred to for further details regarding these statistical analysis methods).
# 1+: Lesions in 25% or less of heart
# 2+: Lesions in more than 25% to 50% of heart
# 3+: Lesions in more than 50% to 75% of heart
# 4+: Lesions in more than 75% to 100% of heart
# Data consisting of heart weight, body weight, heart weight/body weight ratio, heart muscle cellular necrosis and inflammatory cellular invasion measured in accordance with that described above is summarized in Table 1 below. Furthermore, the previously described survival rate data and data relating to heart muscle interferon production to be described later are also shown in Table 1.
# EMC virus [2] = assay: Effect on intramyocardial cytokine production (ELISA) in a cardiac insufficiency model induced by EMC viral myocarditis in mice
# Description: A comparative study was conducted on the effect of cetirizine on cytokine production within heart muscle in a cardiac insufficiency model induced by EMC viral myocarditis in mice.
# 28-day-old, male DBA/2 mice were divided into three groups, and EMC virus was inoculated intraperitoneally to all groups at 1 pfu/mouse (day 0) in the same manner as Example 1.
# as §1, with “(n=10),” for “(n=7),”, “7” for “5”, “days. […]” for “days.”
# The protein concentration of each cytokine was measured by ELISA using a commercially available kit (Circulation, 100: 1102-1108, 1999). […]
# The total protein concentration of each supernatant was measured by the bicinchoninic acid (BCA) method followed by calculation of the ratio of cytokine concentration to total protein concentration (J. Am. Coll. Cardiol., 33: 1400-1407, 1999). Each cytokine protein concentration was expressed as pg/mg of total protein or ng/mg of total protein. […]
# [3] = test system: EMC (encephalomyocarditis) virus; assay: Effect on survival rate in a cardiac insufficiency model induced by EMC viral myocarditis in mice; details: for Survival rate (day 14): DBA/2 mice, EMC virus 1 pfu/mouse i.p., n = 10, control 10%
# Description: A comparative study was conducted on the effect of cetirizine on survival rate in a cardiac insufficiency model induced by EMC (encephalomyocarditis) viral myocarditis in mice.
# 28-day-old, male DBA/2 mice were divided into three groups, and EMC virus that causes myocarditis was inoculated intraperitoneally to all groups at 1 pfu/mouse (0.1 ml as phosphate-buffered saline (PBS)) (day 0)(pfu means plaque forming unit). The EMC virus used here was acquired from ATCC (American Type Culture Collection, Manassas, Va., U.S.A.), and said EMC virus was used after diluting with PBS.
# Following inoculation, a control group given only distilled water to serve as a control (n=10), a cetirizine low dose group to which cetirizine dissolved in distilled water was administered at a dose of 1 mg/kg/day (n=10), and a cetirizine high dose group to which cetirizine dissolved in distilled water was administered at 10 mg/kg/day (n=10), were forcibly fed once a day using a cannula (Wakenyaku Co., Ltd.) for 14 consecutive days.
# The survival rates of the above three groups after 14 days were compared according to the Kaplan-Meier method (documents such as StatView, SAS Institute Inc., Cary, N.C., U.S.A. 1988 can be referred to for further details regarding this Kaplan-Meier method).
# Data are obtained by analyzing the results obtained above according to the Kaplan-Meier method.
# [4] = 1 mg/kg/day oral, 5 days, n = 10, mean ± SD
# [5] = 10 mg/kg/day oral, 5 days, n = 7, mean ± SD
# [6] = score 0 to 4+ (share of heart with lesions), two observers averaged, 1 mg/kg/day oral, 5 days, n = 10, mean ± SD
structure (smiles),measurement,setting,value
"O=C(O)COCCN1CCN(C(c2ccccc2)c2ccc(Cl)cc2)CC1 (racemic) [Cetirizine, (±)-[2-[4-[(4-chlorophenyl)phenylmethyl]-1-piperazinyl]ethoxy]acetic acid]",Histopathological changes of the heart (in words),"EMC virus [1]; 1 and 10 mg/kg/day, day 5, dose-dependently",trend of diminished inflammatory cell invasion and necrosis
same,Heart weight (g) (day 5),EMC virus [1]; [4],0.07 ± 0.008 g
same,Heart weight (g) (day 5),EMC virus [1]; [5],0.60 ± 0.006 g
same,Heart weight/body weight ratio (day 5),EMC virus [1]; [4],5.4 ± 1.1
same,Heart weight/body weight ratio (day 5),EMC virus [1]; [5],5.1 ± 0.8
same,Heart muscle cellular necrosis (day 5),EMC virus [1]; [6],1.8 ± 1.0
same,Inflammatory cellular invasion (day 5),EMC virus [1]; [6],2.3 ± 0.8
same,Intramyocardial IFN-γ (in words),"EMC virus [2]; 7 days after virus inoculation, 1 and 10 mg/kg/day",concentration-dependent increase
same,Heart muscle interferon-γ (day 7),"EMC virus [2]; ELISA of ventricle homogenate, relative to total protein, 1 mg/kg/day oral, 7 days, n = 10, mean ± SD, p < 0.05 vs. control",2.2 ± 1.0
same,Effect on survival rate (in words),"[3]; 1 and 10 mg/kg/day, 14 days, Kaplan-Meier, p<0.05",improved concentration-dependently
same,Survival rate (day 14),"[3]; 1 mg/kg/day oral, 14 days, 1 mg/kg/day",40% (4/10)
same,Survival rate (day 14),"[3]; 1 mg/kg/day oral, 14 days, listed as cetirizine, 1 mg/kg/day",40%
same,Survival rate (day 14),"[3]; 10 mg/kg/day oral, 14 days, p < 0.05 vs. control, 10 mg/kg/day",50% (5/10)*
same,Survival rate (day 14),"[3]; 10 mg/kg/day oral, 14 days, p < 0.05 vs. control, listed as cetirizine, 10 mg/kg/day",50%
same,Overall efficacy against EMC viral infection / viral myocarditis (in words),[3]; summary of Examples 1 and 2: improved mortality rate of mice and viral myocarditis,effective against viral infection
